Assay results published in patent US8664220B2, “Polycyclic compounds as lysophosphatidic acid receptor antagonists” (Amira Pharmaceuticals, Inc., priority 2009, dated 2014).

Target: T1, human LPA1 (Homo sapiens, UniProt Q92633)
T1 construct: the full-length cDNA for human LPA1 was obtained by PCR of the reverse transcription reaction; expressed in transfected cells
Assay: LPA1 calcium flux assay
Type: cell-based
Settings: human LPA1 expressing CHO cells, stimulated with 10 nM LPA; read-out: HLPA1 Ca Flux IC50
Experimental: Establishment of a CHO Cell Line Stably Expressing Human LPA1
A 1.1 kb cDNA encoding the human LPA1 receptor was cloned from human lung.
Human lung RNA (Clontech Laboratories, Inc. USA) was reverse transcribed using the RETROscript kit (Ambion, Inc.) and the full-length cDNA for human LPA1 was obtained by PCR of the reverse transcription reaction. The nucleotide sequence of the cloned human LPA1 was determined by sequencing and confirmed to be identical to the published human LPA1 sequence (An et al. Biochem. Biophys. Res. Commun. 231:619 (1997). The cDNA was cloned into the pcDNA5/FRT expression plasmid and transfected in CHO cells using lipofectamine 2000 (Invitrogen Corp., USA). Clones stably expressing human LPA1 were selected using hygromycin and identified as cells that show Ca-influx in response to LPA.
LPA1 and LPA3 Calcium Flux Assays
Human LPA1 or LPA3 expressing CHO cells are seeded at 20,000-45,000 cells per well in a 96-well poly-D-lysine coated plate one or two days before the assay. Prior to the assay, the cells are washed once with PBS and then cultured in serum-free media overnight. On the day of the assay, a calcium indicator dye (Calcium 4, Molecular Devices) in assay buffer (HBSS with Ca^2+ and Mg^2+ and containing 20 mM Hepes and 0.3% fatty-acid free human serum albumin) is added to each well and incubation continued for 1 hour at 37° C. 10 μl of test compounds in 2.5% DMSO are added to the cells and incubation continued at room temperature for 30 minutes. Cells are the stimulated by the addition of 10 nM LPA and intracellular Ca^2+ measured using the Flexstation 3 (Molecular Devices). IC50s are determined using Graphpad prism analysis of drug titration curves.

T1 sequence (Q92633 whole entry): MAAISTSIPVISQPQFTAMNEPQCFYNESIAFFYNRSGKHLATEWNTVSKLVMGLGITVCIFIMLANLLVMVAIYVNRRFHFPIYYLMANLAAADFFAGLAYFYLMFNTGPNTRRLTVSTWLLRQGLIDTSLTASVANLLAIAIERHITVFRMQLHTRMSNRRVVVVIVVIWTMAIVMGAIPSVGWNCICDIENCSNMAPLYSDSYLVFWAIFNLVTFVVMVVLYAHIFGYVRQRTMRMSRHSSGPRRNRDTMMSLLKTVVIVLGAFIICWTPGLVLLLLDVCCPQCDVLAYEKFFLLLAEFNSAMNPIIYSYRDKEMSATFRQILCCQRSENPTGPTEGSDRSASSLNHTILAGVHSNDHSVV

| IC50 | SMILES |
| --- | --- |
| 1000 to 50000 nM | Cc1noc(-c2ccc(-c3ccc(C4(C(=O)O)CC4)cc3)cc2)c1Nc1ccnc(-c2cccc(F)c2)c1 [Compound 1-112, 1-(4′-{4-[2-(3-Fluoro-phenyl)-pyridin-4-ylamino]-3-methyl-isoxazol-5-yl}-biphenyl-4-yl)-cyclopropanecarboxylic acid] |
| < 300 nM | Cc1noc(-c2ccc(-c3ccc(CC(=O)O)cc3)cc2)c1Nc1cccc(-c2ccccc2)n1 [Compound 1-76, {4′-[3-Methyl-4-(6-phenyl-pyridin-2-ylamino)-isoxazol-5-yl]-biphenyl-4-yl}-acetic acid] |
| 1000 to 50000 nM | Cc1noc(-c2ccc(-c3ccc(C4(C(=O)O)CC4)cc3)cc2)c1C(O)c1cn(Cc2cccc(C(F)(F)F)c2)nn1 (stereo not drawn) [Compound 1-50, 1-[4′-(4-{Hydroxy-[1-(3-trifluoromethyl-benzyl)-1H-[1,2,3]triazol-4-yl]-methyl}-3-methyl-isoxazol-5-yl)-biphenyl-4-yl]-cyclopropanecarboxylic acid] |
| < 300 nM | Cc1noc(-c2ccc(-c3ccc(C4(C(=O)O)CC4)cc3)cc2)c1Nc1cccc(C#Cc2ccccc2)n1 [Compound 1-131, 1-{4′-[3-Methyl-4-(6-phenylethynyl-pyridin-2-ylamino)-isoxazol-5-yl]-biphenyl-4-yl}-cyclopropanecarboxylic acid] |
| < 300 nM | Cc1noc(-c2ccc(-c3ccc(C4(C(=O)O)CC4)cc3)cc2)c1C(O)c1cn(Cc2cccc(Cl)c2)nn1 (stereo not drawn) [Compound 1-57, 1-[4′-(4-{[1-(3-Chloro-benzyl)-1H-[1,2,3]triazol-4-yl]-hydroxy-methyl}-3-methyl-isoxazol-5-yl)-biphenyl-4-yl]-cyclopropanecarboxylic acid] |
| 300 to 1000 nM | Cc1noc(-c2ccc(-c3ccc(C4(C(=O)O)CC4)cc3)cc2)c1Nc1cccc(N(C)c2ccccc2)n1 [Compound 1-105, 1-(4′-{3-Methyl-4-[6-(methyl-phenyl-amino)-pyridin-2-ylamino]-isoxazol-5-yl}-biphenyl-4-yl)-cyclopropanecarboxylic acid] |
| < 300 nM | Cc1noc(-c2ccc(-c3ccc(C4(C(=O)O)CC4)cc3)cc2)c1C(O)c1cccc(-c2ccccc2)c1 (stereo not drawn) [Compound 1-53, 1-{4′-[4-(Biphenyl-3-yl-hydroxy-methyl)-3-methyl-isoxazol-5-yl]-biphenyl-4-yl}-cyclopropanecarboxylic acid] |
| < 300 nM | COc1c(F)cccc1-c1cccc(Nc2c(C)noc2-c2ccc(-c3ccc(C4(C(=O)O)CC4)cc3)cc2)n1 [Compound 1-159, 1-(4′-{4-[6-(3-Fluoro-2-methoxy-phenyl)-pyridin-2-ylamino]-3-methyl-isoxazol-5-yl}-biphenyl-4-yl)-cyclopropanecarboxylic acid] |
| 300 to 1000 nM | CCOc1ccc(-c2cccc(Nc3c(C)noc3-c3ccc(-c4ccc(C5(C(=O)O)CC5)cc4)cc3)n2)cn1 [Compound 1-87, 1-{4′-[4-(6′-Ethoxy-[2,3]bipyridinyl-6-ylamino)-3-methyl-isoxazol-5-yl]-biphenyl-4-yl}-cyclopropanecarboxylic acid] |
| < 300 nM | Cc1noc(-c2ccc(-c3ccc(C4(C(=O)NS(C)(=O)=O)CC4)cc3)cc2)c1Nc1cccc(Cc2ccccc2)n1 [Compound 3-5, N-(1-{4′-[4-(6-Benzyl-pyridin-2-ylamino)-3-methyl-isoxazol-5-yl]-biphenyl-4-yl}-cyclopropanecarbonyl)-methanesulfonamide] |
| 1000 to 50000 nM | Cc1noc(-c2ccc(-c3ccc(C4(CC(=O)O)CC4)cc3)cc2)c1C(O)CCCc1ccc(Cc2ccccc2)cc1 (stereo not drawn) [Compound 1-32, [1-(4′-{4-[4-(4-Benzyl-phenyl)-1-hydroxy-butyl]-3-methyl-isoxazol-5-yl}-biphenyl-4-yl)-cyclopropyl]-acetic acid] |
| 300 to 1000 nM | Cc1noc(-c2ccc(-c3ccc(C4(C(=O)O)CC4)cc3)cc2)c1Nc1cccc(C#CC2CCCC2)n1 [Compound 1-135, 1-{4′-[4-(6-Cyclopentylethynyl-pyridin-2-ylamino)-3-methyl-isoxazol-5-yl]-biphenyl-4-yl}-cyclopropanecarboxylic acid] |
| < 300 nM | Cc1noc(-c2ccc(-c3ccc(C4(C(=O)O)CC4)cc3)cc2)c1Nc1cccc(-c2cccc(C#N)c2)n1 [Compound 1-145, 1-(4′-{4-[6-(3-Cyano-phenyl)-pyridin-2-ylamino]-3-methyl-isoxazol-5-yl}-biphenyl-4-yl)-cyclopropanecarboxylic acid] |
| < 300 nM | Cc1noc(-c2ccc(-c3ccc(C4(C(=O)O)CC4)cc3)cc2)c1NCc1cnc(-c2ccccc2)s1 [Compound 1-100, 1-(4′-{3-Methyl-4-[(2-phenyl-thiazol-5-ylmethyl)-amino]-isoxazol-5-yl}-biphenyl-4-yl)-cyclopropanecarboxylic acid] |
| 1000 to 50000 nM | Cc1ccccc1N1CCN(C(=O)c2c(C)noc2-c2ccc(-c3ccc(C4(C(=O)O)CC4)cc3)cc2)CC1 [Compound 1-2, 1-{4′-[3-Methyl-4-(4-o-tolyl-piperazine-1-carbonyl)-isoxazol-5-yl]-biphenyl-4-yl}-cyclopropanecarboxylic acid] |
| < 300 nM | COc1ccc(F)cc1-c1cccc(Nc2c(C)noc2-c2ccc(-c3ccc(C4(C(=O)O)CC4)cc3)cc2)n1 [Compound 1-146, 1-(4′-{4-[6-(5-Fluoro-2-methoxy-phenyl)-pyridin-2-ylamino]-3-methyl-isoxazol-5-yl}-biphenyl-4-yl)-cyclopropanecarboxylic acid] |
| < 300 nM | Cc1noc(-c2ccc(-c3ccc(C4(C(=O)O)CC4)cc3)cc2)c1NC(C)[C@@H]1C[C@H]1c1ccccc1 (relative stereo) [Compound 1-66, 1-(4′-{3-Methyl-4-[trans-1-(2-phenyl-cyclopropyl)-ethylamino]-isoxazol-5-yl}-biphenyl-4-yl)-cyclopropanecarboxylic acid] |
| 1000 to 50000 nM | Cc1noc(-c2ccc(-c3ccc(C(=O)O)cc3)cc2)c1Nc1nnc(-c2ccccc2)o1 [Compound 1-142, 4′-[3-Methyl-4-(5-phenyl-[1,3,4]oxadiazol-2-ylamino)-isoxazol-5-yl]-biphenyl-4-carboxylic acid] |
| 1000 to 50000 nM | Cc1noc(-c2ccc(-c3ccc(C4(C(=O)O)CC4)cc3)cc2)c1N(c1cccc(Cc2ccccc2)n1)c1cccc(Cc2ccccc2)n1 [Compound 1-120, 1-(4′-{4-[Bis-(6-benzyl-pyridin-2-yl)-amino]-3-methyl-isoxazol-5-yl}-biphenyl-4-yl)-cyclopropanecarboxylic acid] |
| < 300 nM | Cc1noc(-c2ccc(-c3ccc(C4(C(=O)O)CC4)cc3)cc2)c1Nc1cncc(-c2ccc(C(F)(F)F)cc2)c1 [Compound 1-119, 1-(4′-{3-Methyl-4-[5-(4-trifluoromethyl-phenyl)-pyridin-3-ylamino]-isoxazol-5-yl}-biphenyl-4-yl)-cyclopropanecarboxylic acid] |
| < 300 nM | Cc1noc(-c2ccc(-c3ccc(C(C)(C)C(=O)O)cc3)cc2)c1Nc1cccc(-c2ccccc2)n1 [Compound 1-133, 2-Methyl-2-{4′-[3-methyl-4-(6-phenyl-pyridin-2-ylamino)-isoxazol-5-yl]-biphenyl-4-yl}-propionic acid] |
| < 300 nM | Cc1noc(-c2ccc(-c3ccc(C4(C(=O)O)CC4)cc3)cc2)c1Nc1cncc(-c2cc(F)ccc2F)c1 [Compound 1-161, 1-(4′-{4-[5-(2,5-Difluoro-phenyl)-pyridin-3-ylamino]-3-methyl-isoxazol-5-yl}-biphenyl-4-yl)-cyclopropanecarboxylic acid] |
| < 300 nM | Cc1noc(-c2ccc(-c3ccc(CCC(=O)O)cc3)cc2)c1Nc1cccc(-c2ccccc2)n1 [Compound 1-132, 3-{4′-[3-Methyl-4-(6-phenyl-pyridin-2-ylamino)-isoxazol-5-yl]-biphenyl-4-yl}-propionic acid] |
| < 300 nM | Cc1noc(-c2ccc(-c3ccc(C4(C(=O)O)CC4)cc3)cc2)c1C(O)c1cn(C(C)c2ccccc2)nn1 (stereo not drawn) [Compound 1-55, 1-[4′-(4-{Hydroxy-[1-(1-phenyl-ethyl)-1H-[1,2,3]triazol-4-yl]-methyl}-3-methyl-isoxazol-5-yl)-biphenyl-4-yl]-cyclopropanecarboxylic acid] |
| < 300 nM | Cc1noc(-c2ccc(-c3ccc(C4(C(=O)O)CC4)cc3)cc2)c1Nc1cccc(-c2cccc(F)c2Cl)n1 [Compound 1-153, 1-(4′-{4-[6-(2-Chloro-3-fluoro-phenyl)-pyridin-2-ylamino]-3-methyl-isoxazol-5-yl}-biphenyl-4-yl)-cyclopropanecarboxylic acid] |
| 300 to 1000 nM | Cc1noc(-c2ccc(-c3ccc(C4(C(=O)O)CC4)cc3)cc2)c1C(O)c1nnc(Cc2cccc(C(F)(F)F)c2)o1 (stereo not drawn) [Compound 1-46, 1-[4′-(4-{Hydroxy-[5-(3-trifluoromethyl-benzyl)-[1,3,4]oxadiazol-2-yl]-methyl}-3-methyl-isoxazol-5-yl)-biphenyl-4-yl]-cyclopropanecarboxylic acid] |
| < 300 nM | Cc1noc(-c2ccc(-c3ccc(C4(C(=O)O)CC4)cc3)cc2)c1Nc1cccc(-c2cccc(F)c2F)n1 [Compound 1-152, 1-(4′-{4-[6-(2,3-Difluoro-phenyl)-pyridin-2-ylamino]-3-methyl-isoxazol-5-yl}-biphenyl-4-yl)-cyclopropanecarboxylic acid] |
